Here are results for eleven molecules from PubChem BioAssay AID288 (DTP/NCI, 2004).

The test has as its system BDF1 mice, M5076 sarcoma s.c., survival/tumor T/C. In words: NCI In Vivo Anticancer Drug Screen. Data for tumor model Sarcoma M5076 (subcutaneous) in B6D2F1 (BDF1) mice. As for the experimental part:
The antitumor activity of compounds was measured in mice bearing transplantable tumors. Survival or tumor size were measured and the results are expressed as the measurement made in the treated group (T) divided by the measurement made in the vehicle treated control group (C). The tumor model used in this assay is Sarcoma M5076 (subcutaneous) in B6D2F1 (BDF1) mice

The mark [1] stands for this setting: endpoint: median survival time, dose: 50.0 mg/kg/injection, schedule: Q01DX009 (ip), vehicle: saline with Tween-80, higher = longer survival.
The mark [2] stands for this setting: endpoint: median survival time, dose: 100.0 mg/kg/injection, schedule: Q01DX009 (ip), vehicle: saline with Tween-80, higher = longer survival.
Where [3] appears, read: endpoint: median survival time, dose: 200.0 mg/kg/injection, schedule: Q01DX009 (ip), vehicle: saline with Tween-80, higher = longer survival.
The mark [4] stands for this setting: endpoint: median tumor weight (est.), dose: 50.0 mg/kg/injection, schedule: Q01DX009 (ip), vehicle: saline with Tween-80, higher = larger tumour.
Setting [5] is: endpoint: median tumor weight (est.), dose: 100.0 mg/kg/injection, schedule: Q01DX009 (ip), vehicle: saline with Tween-80, higher = larger tumour.
Where [6] appears, read: endpoint: median tumor weight (est.), dose: 200.0 mg/kg/injection, schedule: Q01DX009 (ip), vehicle: saline with Tween-80, higher = larger tumour.

Records with an inconclusive call do not appear.

Regarding `CC(C)[C@](O)(C(=O)OCC1=CC[N+]2([O-])CC[C@@H](O)[C@@H]12)[C@H](C)O` (some centres not stated), the T/C by setting is: (endpoint: mean tumor weight, dose: 75.0 mg/kg/injection, schedule: Q02DX011 (ip), vehicle: saline, higher = larger tumour) 96 % of control; (endpoint: mean tumor weight, dose: 100.0 mg/kg/injection, schedule: Q02DX011 (ip), vehicle: saline, higher = larger tumour) 53 % of control; (endpoint: mean tumor weight, dose: 150.0 mg/kg/injection, schedule: Q02DX011 (ip), vehicle: saline, higher = larger tumour) 82 % of control; (endpoint: mean tumor weight, dose: 200.0 mg/kg/injection, schedule: Q02DX011 (ip), vehicle: saline, higher = larger tumour) 37 % of control; (endpoint: mean tumor weight, dose: 300.0 mg/kg/injection, schedule: Q02DX011 (ip), vehicle: saline, higher = larger tumour) 6 % of control; (endpoint: mean tumor weight, dose: 400.0 mg/kg/injection, schedule: Q02DX011 (ip), vehicle: saline, higher = larger tumour) 13 % of control. For the same molecule, the T/C is 95 % of control (endpoint: median survival time, dose: 200.0 mg/kg/injection, schedule: Q01DX007 (ip), vehicle: saline, higher = longer survival); 117 % of control (endpoint: median survival time, dose: 400.0 mg/kg/injection, schedule: Q01DX007 (ip), vehicle: saline, higher = longer survival); 104 % of control (endpoint: median survival time, dose: 540.0 mg/kg/injection, schedule: Q04DX003 (ip), vehicle: saline, higher = longer survival); 110 % of control (endpoint: median survival time, dose: 800.0 mg/kg/injection, schedule: Q01DX007 (ip), vehicle: saline, higher = longer survival); 112 % of control (endpoint: median survival time, dose: 800.0 mg/kg/injection, schedule: Q04DX003 (ip), vehicle: saline, higher = longer survival); 114 % of control (endpoint: median survival time, dose: 1200.0 mg/kg/injection, schedule: Q04DX003 (ip), vehicle: saline, higher = longer survival). The T/C (endpoint: median tumor weight (est.), dose: 75.0 mg/kg/injection, schedule: Q02DX011 (ip), vehicle: saline, higher = larger tumour) is 89 % of control; the T/C (endpoint: median tumor weight (est.), dose: 100.0 mg/kg/injection, schedule: Q02DX011 (ip), vehicle: saline, higher = larger tumour) was 56 % of control; the T/C (endpoint: median tumor weight (est.), dose: 150.0 mg/kg/injection, schedule: Q02DX011 (ip), vehicle: saline, higher = larger tumour) is 82 % of control; the T/C (endpoint: median tumor weight (est.), dose: 200.0 mg/kg/injection, schedule: Q02DX011 (ip), vehicle: saline, higher = larger tumour) was 39 % of control; the T/C (endpoint: median tumor weight (est.), dose: 300.0 mg/kg/injection, schedule: Q02DX011 (ip), vehicle: saline, higher = larger tumour) was 3 % of control; the T/C (endpoint: median tumor weight (est.), dose: 400.0 mg/kg/injection, schedule: Q02DX011 (ip), vehicle: saline, higher = larger tumour) was 14 % of control.
In the case of `COc1cc(COC(=O)Nc2ccccc2F)cc(OC)c1OC`, the T/C by setting is: under setting [1], 100 % of control; under setting [2], 103 % of control; under setting [3], 94 % of control; under setting [4], 99 % of control; under setting [5], 111 % of control; under setting [6], 98 % of control.
For the molecule `Cc1nc(N)nc(N)c1-c1ccc(Cl)c(Cl)c1`, where the note is “endpoint: median survival time, dose: 1.5 mg/kg/injection, schedule: Q01DX009 (ip), vehicle: normal media, higher = longer survival”, the T/C is 105 % of control.
In the case of `C1CN(P2(N3CC3)=NP(N3CC3)(N3CC3)=NP(N3CC3)(N3CC3)=N2)CCO1` (configuration not stated), the T/C reads like this: (endpoint: median survival time, dose: 6.25 mg/kg/injection, schedule: Q02DX011 (ip), vehicle: saline, higher = longer survival) 99 % of control; (endpoint: median survival time, dose: 12.5 mg/kg/injection, schedule: Q02DX011 (ip), vehicle: saline, higher = longer survival) 105 % of control; (endpoint: median survival time, dose: 25.0 mg/kg/injection, schedule: Q02DX011 (ip), vehicle: saline, higher = longer survival) 122 % of control; (endpoint: median survival time, dose: 50.0 mg/kg/injection, schedule: Q02DX011 (ip), vehicle: saline, higher = longer survival) 89 % of control.
Take `COc1cc(NS(C)(=O)=O)ccc1Nc1c2ccccc2nc2ccccc12`: the T/C was 68 % of control (endpoint: mean tumor weight, dose: 1.88 mg/kg/injection, schedule: Q02DX011 (ip), vehicle: clinical formulation, higher = larger tumour); 31 % of control (endpoint: mean tumor weight, dose: 3.75 mg/kg/injection, schedule: Q02DX011 (ip), vehicle: clinical formulation, higher = larger tumour); 79 % of control (endpoint: median tumor weight (est.), dose: 1.88 mg/kg/injection, schedule: Q02DX011 (ip), vehicle: clinical formulation, higher = larger tumour); 42 % of control (endpoint: median tumor weight (est.), dose: 3.75 mg/kg/injection, schedule: Q02DX011 (ip), vehicle: clinical formulation, higher = larger tumour).
For the molecule `O=C(O)c1ccc(C(=O)O)c(C(=O)O)c1.[NH-]C1CCCCC1[NH-].[Pt+2]`, the T/C (endpoint: median survival time, dose: 0.8 mg/kg/injection, schedule: Q01DX009 (ip), vehicle: sodium bicarbonate, higher = longer survival) was 101 % of control; the T/C (endpoint: median survival time, dose: 1.5 mg/kg/injection, schedule: Q01DX009 (ip), vehicle: sodium bicarbonate, higher = longer survival) was 104 % of control; the T/C (endpoint: median survival time, dose: 3.0 mg/kg/injection, schedule: Q01DX009 (ip), vehicle: sodium bicarbonate, higher = longer survival) was 108 % of control; the T/C (endpoint: median survival time, dose: 6.0 mg/kg/injection, schedule: Q01DX009 (ip), vehicle: sodium bicarbonate, higher = longer survival) is 112 % of control; the T/C (endpoint: median survival time, dose: 8.64 mg/kg/injection, schedule: Q04DX005 (ip), vehicle: sodium bicarbonate, higher = longer survival) is 176 % of control; the T/C (endpoint: median survival time, dose: 14.4 mg/kg/injection, schedule: Q04DX005 (ip), vehicle: sodium bicarbonate, higher = longer survival) was 216 % of control. Moreover, the T/C was 14 % of control (endpoint: median tumor weight (est.), dose: 3.11 mg/kg/injection, schedule: Q04DX005 (ip), vehicle: sodium bicarbonate, higher = larger tumour) and 18 % of control (endpoint: median tumor weight (est.), dose: 5.18 mg/kg/injection, schedule: Q04DX005 (ip), vehicle: sodium bicarbonate, higher = larger tumour).
For the molecule `Cc1ccc(/C=C2\SC(=S)N(C3CC3)C2=O)cc1`, the T/C reads like this: under setting [1], 103 % of control; under setting [2], 94 % of control; under setting [3], 98 % of control; under setting [4], 105 % of control; under setting [5], 80 % of control; under setting [6], 93 % of control.
For the molecule `O=NN(CCCl)C(=O)NC1CCC(=O)NC1=O` (configuration not stated), the T/C runs as follows: (endpoint: median survival time, dose: 2.0 mg/kg/injection, schedule: Q01DX009 (ip), vehicle: saline + alcohol, higher = longer survival) 170 % of control; (endpoint: median survival time, dose: 4.0 mg/kg/injection, schedule: Q01DX009 (ip), vehicle: saline + alcohol, higher = longer survival) 208 % of control; (endpoint: median survival time, dose: 8.0 mg/kg/injection, schedule: Q01DX009 (ip), vehicle: saline + alcohol, higher = longer survival) 86 % of control.
Turning to `Cc1cc(C)nc(NS(=O)(=O)c2ccc(NC(=O)C(Cl)(Cl)Cl)cc2)n1`, the T/C was 88 % of control under setting [1]; 88 % of control under setting [2]; 94 % of control under setting [3]; 171 % of control under setting [5]; 100 % of control under setting [6].
Regarding `O=C1N[C@H]2[C@H](O)[C@H](O)[C@@H](O)[C@H](O)[C@@H]2c2cc3c(c(O)c21)OCO3`, the T/C by setting is: (endpoint: median survival time, dose: 0.38 mg/kg/injection, schedule: Q01DX009 (ip), vehicle: saline + alcohol, higher = longer survival) 101 % of control; (endpoint: median survival time, dose: 0.75 mg/kg/injection, schedule: Q01DX009 (ip), vehicle: saline + Tween-80 + alcohol, higher = longer survival) 106 % of control; (endpoint: median survival time, dose: 0.75 mg/kg/injection, schedule: Q01DX009 (ip), vehicle: saline + alcohol, higher = longer survival) 89 % of control; (endpoint: median survival time, dose: 1.5 mg/kg/injection, schedule: Q01DX009 (ip), vehicle: saline + Tween-80 + alcohol, higher = longer survival) 111 % of control; (endpoint: median survival time, dose: 1.5 mg/kg/injection, schedule: Q01DX009 (ip), vehicle: saline + alcohol, higher = longer survival) 94 % of control; (endpoint: median survival time, dose: 3.0 mg/kg/injection, schedule: Q01DX009 (ip), vehicle: saline + alcohol, higher = longer survival) 120 % of control. The T/C is 103 % of control (endpoint: median tumor weight (est.), dose: 0.38 mg/kg/injection, schedule: Q01DX009 (ip), vehicle: saline + alcohol, higher = larger tumour); 80 % of control (endpoint: median tumor weight (est.), dose: 0.75 mg/kg/injection, schedule: Q01DX009 (ip), vehicle: saline + Tween-80 + alcohol, higher = larger tumour); 96 % of control (endpoint: median tumor weight (est.), dose: 0.75 mg/kg/injection, schedule: Q01DX009 (ip), vehicle: saline + alcohol, higher = larger tumour); 49 % of control (endpoint: median tumor weight (est.), dose: 1.5 mg/kg/injection, schedule: Q01DX009 (ip), vehicle: saline + Tween-80 + alcohol, higher = larger tumour); 64 % of control (endpoint: median tumor weight (est.), dose: 1.5 mg/kg/injection, schedule: Q01DX009 (ip), vehicle: saline + alcohol, higher = larger tumour); 2 % of control (endpoint: median tumor weight (est.), dose: 3.0 mg/kg/injection, schedule: Q01DX009 (ip), vehicle: saline + Tween-80 + alcohol, higher = larger tumour). The T/C runs as follows: (endpoint: median tumor weight (est.), dose: 3.0 mg/kg/injection, schedule: Q01DX009 (ip), vehicle: saline + alcohol, higher = larger tumour) 27 % of control; (endpoint: median tumor weight (est.), dose: 6.0 mg/kg/injection, schedule: Q01DX009 (ip), vehicle: saline + alcohol, higher = larger tumour) 3 % of control.
For `Nc1nnc[se]1`, the T/C (endpoint: median survival time, dose: 50.0 mg/kg/injection, schedule: Q04DX003 (ip), vehicle: saline with Tween-80, higher = longer survival) was 121 % of control; the T/C (endpoint: median survival time, dose: 100.0 mg/kg/injection, schedule: Q04DX003 (ip), vehicle: saline with Tween-80, higher = longer survival) is 116 % of control; the T/C (endpoint: median survival time, dose: 200.0 mg/kg/injection, schedule: Q04DX003 (ip), vehicle: saline with Tween-80, higher = longer survival) is 124 % of control.
